# Molecular target: T1, LPA2 receptor (LPA2R) (Homo sapiens, UniProt Q9HBW0)
# T1 construct: expressed in transfected cells; host or cells: U2OS
# Assay: LPA2R-Calciumflux assay (intracellular calcium mobilisation, FLIPR)
# Format: cell-based
# Settings: U2OS cells recombinant expressing LPA2R; inhibition of LPA-induced Ca-flux; 10 concentrations 30 uM to 1 nM, 1% DMSO
# T1 sequence (Q9HBW0 whole entry): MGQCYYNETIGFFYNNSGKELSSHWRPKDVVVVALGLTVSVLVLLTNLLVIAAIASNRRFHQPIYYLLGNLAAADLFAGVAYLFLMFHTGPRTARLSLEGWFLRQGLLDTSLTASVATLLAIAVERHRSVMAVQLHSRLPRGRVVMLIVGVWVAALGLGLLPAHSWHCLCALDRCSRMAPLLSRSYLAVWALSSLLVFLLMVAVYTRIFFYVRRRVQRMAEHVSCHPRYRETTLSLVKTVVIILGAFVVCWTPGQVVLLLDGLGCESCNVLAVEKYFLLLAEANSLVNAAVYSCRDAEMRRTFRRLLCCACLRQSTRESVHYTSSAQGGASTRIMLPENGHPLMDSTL
row,SMILES,IC50 [µM]
1,"Fc1ccc(CCCN2CCCCC2c2cc3cc(F)ccc3[nH]2)cc1 (stereo not shown) [compound 132, 5-Fluoro-2-{1-[3-(4-fluoro-phenyl)-propyl)-piperidin-2-yl}-1H-indole]",5 to 15
2,"Fc1ccc(CN2CCCC[C@@H]2c2cc3cc(F)ccc3[nH]2)cc1 [compound 136, 5-Fluoro-2-[(R)-1-(4-fluoro-benzyl)-piperidin-2-yl]-1H-indole]",< 0.5
3,"Fc1ccc(CN2CCCC[C@H]2c2cc3cc(F)ccc3[nH]2)cc1 [compound 137, 5-Fluoro-2-[(S)-1-(4-fluoro-benzyl)-piperidin-2-yl]-1H-indole]",0.5 to 5
4,"Cc1ccc(CN2CCCC[C@H]2c2cc3cc(F)ccc3[nH]2)cc1C [compound 139, 2-[(S)-1-(3,4-Dimethyl-benzyl)-piperidin-2-yl]-5-fluoro-1H-indole]",0.5 to 5
5,"Cc1ccc(CN2CCCC[C@@H]2c2nc3cc(Cl)cnc3[nH]2)cc1C [compound 140, 6-Chloro-2-[(R)-1-(3,4-dimethyl-benzyl)-piperidin-2-yl]-3H-imidazo[4,5-b]pyridine]",0.5 to 5
6,"Cc1ccc(CN2CCCC[C@H]2c2nc3cc(F)ccc3[nH]2)cc1C [compound 142, 2-[(S)-1-(3,4-Dimethyl-benzyl)-piperidin-2-yl]-5-fluoro-1H-benzo-imidazole]",< 0.5
7,"Cc1ccc(CN2CCCC[C@@H]2c2cc3ccccc3[nH]2)cc1 [compound 143, 2-[(R)-1-(4-Methyl-benzyl)-piperidin-2-yl)-1H-indole]",< 0.5

# Results, then the compound that gave them:
row,IC50 [µM],SMILES
1,5 to 15,"Fc1ccc(CN2CCCCC2c2nc3nccnc3[nH]2)cc1 (stereo not shown) [compound 133, 2-[1-(4-Fluoro-benzyl)-piperidin-2-yl]-1H-imidazo[4,5-b]pyrazine]"
2,< 0.5,"Cc1ccc(CN2CCCCC2c2nc3nccnc3[nH]2)cc1C (stereo not shown) [compound 134, 2-[1-(3,4-Dimethyl-benzyl)-piperidin-2-yl]-1H-imidazo[4,5-b]pyrazine]"
3,5 to 15,"Cc1ccc(CN2CCC3C[C@]32c2nc3cc(F)ccc3[nH]2)cc1C (stereo partly drawn) [compound 135, 2-[(R)-2-(3,4-Dimethyl-benzyl)-2-aza-bicyclo-[3.1.0]hex-1-yl]-5-fluoro-1H-benzo-imidazole]"
4,< 0.5,"Cc1ccc(CN2CCCC[C@@H]2c2cc3cc(F)ccc3[nH]2)cc1C [compound 138, 2-[(R)-1-(3,4-Dimethyl-benzyl)-piperidin-2-yl]-5-fluoro-1H-indole]"
5,0.5 to 5,"Cc1ccc(CN2CCCC[C@H]2c2nc3cc(Cl)cnc3[nH]2)cc1C [compound 141, 6-Chloro-2-[(S)-1-(3,4-dimethyl-benzyl)-piperidin-2-yl]-3H-imidazo[4,5-b]pyridine]"
6,0.5 to 5,"Fc1ccc(CN2CCCCC2c2cc3cccnc3[nH]2)cc1 (stereo not shown) [compound 144, 2-[1-(4-Fluoro-benzyl)-piperidin-2-yl]-1H-pyrrolo[2,3-b]pyridine]"
